“Also recorded” adds a separate entry of the source.
What was measured:
[1] = system: human T cell lymphoma (Jurkat) cells; settings: for cytotoxic activity (MTT assay, OD570): 24 h culture with compound; for cytotoxic activity (MTT assay), compound incubated in human serum: pre-incubation in human serum
Experimental: Test compounds were dissolved in DMSO at a concentration of 20 mM. Further dilutions were done in RPMI1640 medium (GIBCO, Rockville, Md.) supplemented with 10% Fetal Calf Serum (HyClone Laboratories, Logan, Utah).
Cytotoxicity of the compounds was determined in a standard MTT assay using Cell Proliferation Kit I (#1 465 007, Roche Diagnostics, Mannheim, Germany). Briefly, human T cell lymphoma (Jurkat) cells (4×10^5 per well) were cultured for 24 h, in 96-well tissue culture plates, in the presence of serial three-fold dilutions of test compounds or medium containing the same concentration of DMSO as in the test samples at each dilution point. The cultures were then supplemented with 10 μl/well MTT reagent for 4 h and then with 0.1 ml/well solubilizing reagent for an additional 16 h. Optical density at 570 nm (OD570) was measured on a ThermoScan microplate reader (Molecular Devices, Menlo Park, Calif.).
The data is presented as OD570 values versus concentration of the compounds. In this case, data is provided for both compounds incubated in human serum and in mouse serum, and for PG796 without incubation.

[2] = system: IL-2 production in Jurkat cells; type: cell-based, human; settings: for inhibition of IL-2 production: Jurkat cells stimulated with anti-CD3 and PMA, 24 h; for inhibition of IL-2 production, compound incubated in human serum: pre-incubation in human serum
Experimental: Test samples were diluted to 1 mM in complete tissue culture medium. […] Cells from an exponentially expanding culture of Jurkat human T cell line (#TIB-152 obtained from American Type Culture Collection, Manassas, Va.) were harvested, washed once by centrifugation, re-suspended in complete tissue culture medium, and diluted to a concentration of 2×10^6 cells/ml. A volume of 50 μl of Jurkat cells (1×10^5 cells) was added to wells containing 100 μl of the diluted compounds, 50 μl of PMA (10 ng/ml) was added to each well, and the plates were incubated at 37° C. in a 5% CO2 incubator. After 24 hours, the plates were centrifuged to pellet the cells, 150 μl of supernatant was removed from each well, and the samples were stored at −20° C. The stored supernatants were analyzed for human IL-2 concentration using the Luminex 100 (Luminex Corporation, Austin, Tex.), Luminex microspheres coupled with anti-IL-2 capture antibody, and fluorochrome-coupled anti-IL-2 detection antibody. The data were expressed as pg/ml of IL-2.
The data were plotted as the concentration of compound versus IL-2 concentration. In this case, data is provided for both compounds incubated in human serum and in mouse serum, and for PG796 without incubation.

| SMILES | cytotoxic activity (MTT assay, OD570) [1] | inhibition of IL-2 production [2] | cytotoxic activity (MTT assay), compound incubated in human serum [1] | cytotoxic activity (MTT assay), compound incubated in mouse serum ([1]; pre-incubation in mouse serum) | cytotoxic activity (MTT assay), compound unincubated ([1]; without serum incubation, compared with serum-incubated compound) | inhibition of IL-2 production, compound incubated in human serum ([2]; Jurkat cells) | inhibition of IL-2 production, compound incubated in mouse serum ([2]; Jurkat cells, pre-incubation in mouse serum) | inhibition of IL-2 production, compound unincubated ([2]; Jurkat cells, without serum incubation, compared with serum-incubated compound) |
| --- | --- | --- | --- | --- | --- | --- | --- | --- |
| CC1OC(=O)C2=C1[C@@H]1C[C@@H]3O[C@@]34[C@H](O)[C@@]3(C(C)C)O[C@H]3[C@@H]3O[C@@]34[C@@]1(C)CC2 (stereo partly drawn) [PG795, 19-methyl triptolide] | cytotoxic to Jurkat cells; also recorded: significant activity; also recorded: less active than triptolide | significant activity; also recorded: less active than triptolide; also recorded: inhibited IL-2 production |  |  |  |  |  |  |
| CC(C)[C@]12O[C@H]1[C@@H]1O[C@]13[C@]1(O[C@H]1C[C@H]1c4c(C(=O)c5ccccc5)oc(OC(=O)c5ccccc5)c4CC[C@@]13C)[C@@H]2O [PG796, 18-deoxo-19-dehydro-18-benzoyloxy-19-benzoyl triptolide] | cytotoxic to Jurkat cells; also recorded: higher level of activity in both assays than the known prodrug, triptolide 14-succinate | higher level of activity in both assays than the known prodrug, triptolide 14-succinate; also recorded: inhibited IL-2 production | high, and essentially equivalent, activity | high, and essentially equivalent, activity | nearly equivalent activity | high, and essentially equivalent, activity | high, and essentially equivalent, activity | nearly equivalent activity |
| CC(C)[C@]12O[C@H]1[C@@H]1O[C@]13[C@]1(O[C@H]1C[C@H]1C4=C(CC[C@@]13C)C(=O)OC4)[C@@H]2OC(=O)CCC(=O)O [triptolide 14-succinate, reference compound] |  |  | much less active in these assays than triptolide 14-succinate incubated in mouse serum |  |  | much less active in these assays than triptolide 14-succinate incubated in mouse serum |  |  |

— patent publication US8426616B2, “Triptolide lactone ring derivatives as immunomodulators and anticancer agents” (priority 2004, dated 2013)
